Measurements taken from article PMC10905675, “INX-315, a Selective CDK2 Inhibitor, Induces Cell Cycle Arrest and Senescence in Solid Tumors” (Cancer Discovery, 2023).
Where two headings read alike, the source gives them in different places.

Experiments:
GSG2 (Haspin) = biological target: T1, GSG2 (Haspin) (Homo sapiens, UniProt Q8TF76); test: SelectScreen Adapta; assay type: biochemical; details: INX-0315 at 100nM
T1 construct: purchased Thermo Fisher Scientific SelectScreen (plus Nanosyn / Reaction Biology for CDK/cyclin lines)
Text: (§1) INX-315 was first evaluated in the SelectScreen Biochemical Kinase Profiling at Thermo Fisher Scientific (Madison, WI). The primary screen consisted of INX-315 dosed at a single concentration of 100 nmol/L in 1% DMSO across each platform within the SelectScreen array of assays, LanthaScreen Eu Kinase Binding Assay; AdaptaScreen; and Z'LyteScreen using preestablished conditions at Thermo Fisher Scientific as shown in Supplementary Table S2. […] The follow-up screen consisted of 10-point dose–response curves for INX-315 from 1 µmol/L to 0.0495 nmol/L.

[1] = biological target: T2, PIK3CB/PIK3R1 (p110 beta/p85 alpha) (Homo sapiens, UniProt P42338); test: SelectScreen Adapta; assay type: biochemical; details: INX-0315 at 100nM
T2 construct: purchased Thermo Fisher Scientific SelectScreen (plus Nanosyn / Reaction Biology for CDK/cyclin lines)
Text: as §1

PIK3C2B (PI3K-C2 beta) = biological target: T3, PIK3C2B (PI3K-C2 beta) (Homo sapiens, UniProt O00750); test: SelectScreen Adapta; assay type: biochemical; details: INX-0315 at 100nM
T3 construct: purchased Thermo Fisher Scientific SelectScreen (plus Nanosyn / Reaction Biology for CDK/cyclin lines)
Text: as §1

PIK3C2G (PI3K-C2 gamma) = biological target: T4, PIK3C2G (PI3K-C2 gamma) (Homo sapiens, UniProt O75747); test: SelectScreen Adapta; assay type: biochemical; details: INX-0315 at 100nM
T4 construct: purchased Thermo Fisher Scientific SelectScreen (plus Nanosyn / Reaction Biology for CDK/cyclin lines)
Text: as §1

[2] = biological target: T5, PIK3CA E545K/PIK3R1 (p110 alpha E545K/p85 alpha) (Homo sapiens, UniProt P42336, E545K); test: SelectScreen Adapta; assay type: biochemical; details: INX-0315 at 100nM
T5 construct: purchased Thermo Fisher Scientific SelectScreen (plus Nanosyn / Reaction Biology for CDK/cyclin lines)
Text: as §1

LRRK2 I2020T = biological target: T6, LRRK2 I2020T (Homo sapiens, UniProt Q5S007, I2020T); test: SelectScreen Adapta; assay type: biochemical; details: INX-0315 at 100nM
T6 construct: purchased Thermo Fisher Scientific SelectScreen (plus Nanosyn / Reaction Biology for CDK/cyclin lines)
Text: as §1

LRRK2 R1441C = biological target: T7, LRRK2 R1441C (Homo sapiens, UniProt Q5S007, R1441C); test: SelectScreen Adapta; assay type: biochemical; details: INX-0315 at 100nM
T7 construct: purchased Thermo Fisher Scientific SelectScreen (plus Nanosyn / Reaction Biology for CDK/cyclin lines)
Text: as §1

CDK4/cyclin D1 [3] = biological target: T8, CDK4/cyclin D1 (Homo sapiens, UniProt P11802); test: SelectScreen Adapta; assay type: biochemical; details: INX-0315 at 100nM
T8 construct: purchased ThermoFisher PV4400
Text: as §1

PI4KB (PI4K beta) = biological target: T9, PI4KB (PI4K beta) (Homo sapiens, UniProt Q9UBF8); test: SelectScreen Adapta; assay type: biochemical; details: INX-0315 at 100nM
T9 construct: purchased Thermo Fisher Scientific SelectScreen (plus Nanosyn / Reaction Biology for CDK/cyclin lines)
Text: as §1

[4] = system: CDK4/6-resistant breast cancer cells; test: Cell number dose-response (discussion summary); assay type: cell-based; details: addition of INX-315 to CDK4/6-resistant cells
Method: An exception to this is MCF7PDRCl5-1 cells which were first cultured for 5 days without palbociclib then plated as described. MCF7PDRCl5-1 cells were treated with either a dose curve of the indicated CDK4/6i or a dose curve of INX-315 + 1 µmol/L of the indicated CDK4/6i. Cell viability was determined using the CellTiter-Glo assay (Promega, G9241) following manufacturer's instructions. Plates were processed on either BioTek Synergy2 multi-mode (Agilent) or ClarioSTAR (BMG Labtech) plate readers. T47D and MCF7 cells were seeded into […] plates using BioTek 406 (Aglient) and treated with a ten-point dose concentration from 10 µmol/L to 0.3 nmol/L of INX-315 for 2× doubling times. Plates were fixed with 4% PFA and stained with Rhodamine-Phalloidin (Bio-Trend, 00027) and DAPI (5 mg/mL, Invitrogen, catalog no. D1306). Plates were imaged using CellInsight CX7 LZR and DAPI-positive cells were counted using Thermo Fisher Scientific HCS Studio Cell Analysis Software.

CDK2/cyclin E1 = biological target: T10, CDK2/cyclin E1 (Homo sapiens, UniProt P24941); test: Nanosyn biochemical assay; details: for IC50: Nanosyn
T10 construct: purchased Millipore 14-475
Method: (§2) Compounds were tested in kinase assays (Nanosyn, Inc.). The assays were completed using microfluidic kinase detection technology (Caliper Assay Platform). The compounds were tested in 12-point dose–response format in singlicate at the Km for ATP. Phosphoacceptor substrate peptide concentration used was 1 µmol/L and staurosporine was used as the reference compound for all assays. Details for individual Nanosyn assays performed are provided here: […]

CDK5 = biological target: T11, CDK5 (Homo sapiens, UniProt Q00535); test: Nanosyn biochemical assay
T11 construct: purchased ThermoFisher PV3000
Method: as §2

CDK5/p25 = biological target: T12, CDK5/p25 (Homo sapiens, UniProt Q00535); test: Nanosyn biochemical assay; details: ATP at Km, value (SEM), read-out: IC50 (nmol/L) CDK5/p25
T12 construct: purchased BPS 40105
Method: as §2

CDK9/cyclin T1 = biological target: T13, CDK9/cyclin T1 (Homo sapiens, UniProt P50750); test: Nanosyn biochemical assay; details: Supp Fig S1D, representative dose response curve, read-out: IC50 CDK9 - Cyclin T1
T13 construct: purchased Carna 04-110
Method: as §2

CDK6/cyclin D3 = biological target: T14, CDK6/cyclin D3 (Homo sapiens, UniProt Q00534); test: Nanosyn biochemical assay; details: Supp Fig S1D, representative dose response curve, read-out: IC50 CDK6 - Cyclin D3
T14 construct: purchased Carna 04-107
Method: as §2

CDK7 = biological target: T15, CDK7 (Homo sapiens, UniProt P50613); test: Nanosyn biochemical assay; details: Supp Fig S1C, value (SEM), read-out: IC50 (nM) CDK7
T15 construct: purchased Carna 04-108
Method: as §2

CDK1/cyclin B1 = biological target: T16, CDK1/cyclin B1 (Homo sapiens, UniProt P06493); test: Nanosyn biochemical assay
T16 construct: purchased Millipore 14-450M
Method: as §2

CDK2/cyclin A2 = biological target: T17, CDK2/cyclin A2 (Homo sapiens, UniProt P24941); test: Nanosyn biochemical assay; details: Supp Fig S1D, representative dose response curve, read-out: IC50 CDK2 - Cyclin A
T17 construct: purchased Millipore 14-448
Method: as §2

CDK4/cyclin D1 [5] = biological target: T8, CDK4/cyclin D1; test: Nanosyn biochemical assay
Method: as §2

CDK3/cyclin E1 = biological target: T18, CDK3/cyclin E1 (Homo sapiens, UniProt Q00526); test: Nanosyn biochemical assay
T18 construct: purchased BPS 40103
Method: as §2

T8 sequence (P11802 whole entry): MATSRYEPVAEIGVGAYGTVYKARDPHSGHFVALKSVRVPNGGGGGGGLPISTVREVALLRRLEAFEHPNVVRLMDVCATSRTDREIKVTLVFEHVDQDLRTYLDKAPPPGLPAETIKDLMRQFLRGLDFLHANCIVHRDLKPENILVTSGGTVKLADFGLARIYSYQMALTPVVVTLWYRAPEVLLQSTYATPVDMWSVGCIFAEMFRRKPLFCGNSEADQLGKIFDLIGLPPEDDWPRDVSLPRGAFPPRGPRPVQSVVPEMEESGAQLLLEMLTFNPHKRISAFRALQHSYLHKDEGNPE
T8 sequence (P24385 whole entry partner): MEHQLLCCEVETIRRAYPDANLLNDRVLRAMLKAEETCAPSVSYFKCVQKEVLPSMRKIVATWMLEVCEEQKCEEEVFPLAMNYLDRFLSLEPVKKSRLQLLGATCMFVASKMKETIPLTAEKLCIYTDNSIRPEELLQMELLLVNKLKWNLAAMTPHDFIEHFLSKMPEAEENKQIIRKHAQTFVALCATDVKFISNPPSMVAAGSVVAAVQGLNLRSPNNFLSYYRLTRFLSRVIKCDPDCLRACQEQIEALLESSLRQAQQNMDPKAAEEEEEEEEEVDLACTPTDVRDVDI
T11 sequence (Q00535 whole entry): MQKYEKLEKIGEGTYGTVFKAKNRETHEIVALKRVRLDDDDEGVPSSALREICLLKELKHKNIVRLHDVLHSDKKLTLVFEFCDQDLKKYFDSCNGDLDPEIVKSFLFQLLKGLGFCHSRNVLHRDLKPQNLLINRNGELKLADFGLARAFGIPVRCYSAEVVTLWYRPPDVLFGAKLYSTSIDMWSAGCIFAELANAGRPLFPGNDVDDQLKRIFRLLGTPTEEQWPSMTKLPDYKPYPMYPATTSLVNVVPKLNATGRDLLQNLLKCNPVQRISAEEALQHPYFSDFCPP
T11 sequence (Q15078 2-307 partner limits assumed): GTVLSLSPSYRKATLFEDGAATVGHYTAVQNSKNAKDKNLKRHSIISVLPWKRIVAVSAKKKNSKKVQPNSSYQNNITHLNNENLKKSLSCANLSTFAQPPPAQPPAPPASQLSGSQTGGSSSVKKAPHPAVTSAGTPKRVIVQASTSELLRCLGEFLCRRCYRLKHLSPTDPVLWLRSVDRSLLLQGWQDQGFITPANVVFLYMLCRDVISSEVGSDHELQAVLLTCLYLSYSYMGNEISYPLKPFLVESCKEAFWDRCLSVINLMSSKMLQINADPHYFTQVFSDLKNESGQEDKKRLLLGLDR
T16 sequence (P06493 whole entry): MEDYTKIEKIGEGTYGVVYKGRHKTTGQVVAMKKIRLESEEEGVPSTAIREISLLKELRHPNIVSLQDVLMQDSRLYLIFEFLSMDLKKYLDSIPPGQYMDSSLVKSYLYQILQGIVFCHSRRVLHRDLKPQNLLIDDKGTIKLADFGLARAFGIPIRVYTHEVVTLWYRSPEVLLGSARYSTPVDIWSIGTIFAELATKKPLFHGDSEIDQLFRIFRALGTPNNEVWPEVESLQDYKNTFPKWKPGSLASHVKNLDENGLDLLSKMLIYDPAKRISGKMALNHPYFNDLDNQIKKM
T16 sequence (P14635 whole entry partner): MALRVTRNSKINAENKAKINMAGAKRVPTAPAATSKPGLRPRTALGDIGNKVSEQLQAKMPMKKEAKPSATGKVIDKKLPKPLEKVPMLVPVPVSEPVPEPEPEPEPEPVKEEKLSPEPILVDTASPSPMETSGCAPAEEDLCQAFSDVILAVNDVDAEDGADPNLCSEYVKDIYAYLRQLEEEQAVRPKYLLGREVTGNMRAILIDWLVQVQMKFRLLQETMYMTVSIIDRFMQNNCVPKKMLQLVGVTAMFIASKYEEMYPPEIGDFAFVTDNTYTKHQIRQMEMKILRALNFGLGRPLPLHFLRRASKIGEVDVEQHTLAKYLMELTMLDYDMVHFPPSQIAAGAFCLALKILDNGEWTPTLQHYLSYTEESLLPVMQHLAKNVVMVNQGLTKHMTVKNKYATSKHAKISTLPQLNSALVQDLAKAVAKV
T14 sequence (Q00534 whole entry): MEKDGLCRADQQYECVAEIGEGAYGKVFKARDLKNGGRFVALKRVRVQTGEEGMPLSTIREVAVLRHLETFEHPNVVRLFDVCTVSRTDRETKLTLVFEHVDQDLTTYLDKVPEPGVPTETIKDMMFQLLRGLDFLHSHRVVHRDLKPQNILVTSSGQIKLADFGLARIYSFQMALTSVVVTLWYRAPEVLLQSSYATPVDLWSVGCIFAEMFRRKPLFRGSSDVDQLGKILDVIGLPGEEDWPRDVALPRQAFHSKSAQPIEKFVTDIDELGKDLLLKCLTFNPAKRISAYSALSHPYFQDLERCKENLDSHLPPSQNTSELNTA
T14 sequence (P30281 whole entry partner): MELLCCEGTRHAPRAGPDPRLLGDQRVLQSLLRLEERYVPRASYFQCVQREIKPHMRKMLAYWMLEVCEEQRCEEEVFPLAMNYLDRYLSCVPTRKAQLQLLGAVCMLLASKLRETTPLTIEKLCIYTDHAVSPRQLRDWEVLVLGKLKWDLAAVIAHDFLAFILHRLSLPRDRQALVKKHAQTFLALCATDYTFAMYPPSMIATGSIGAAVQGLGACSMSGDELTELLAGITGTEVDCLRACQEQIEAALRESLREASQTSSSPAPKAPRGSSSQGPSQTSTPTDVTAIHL
T15 sequence (P50613 whole entry): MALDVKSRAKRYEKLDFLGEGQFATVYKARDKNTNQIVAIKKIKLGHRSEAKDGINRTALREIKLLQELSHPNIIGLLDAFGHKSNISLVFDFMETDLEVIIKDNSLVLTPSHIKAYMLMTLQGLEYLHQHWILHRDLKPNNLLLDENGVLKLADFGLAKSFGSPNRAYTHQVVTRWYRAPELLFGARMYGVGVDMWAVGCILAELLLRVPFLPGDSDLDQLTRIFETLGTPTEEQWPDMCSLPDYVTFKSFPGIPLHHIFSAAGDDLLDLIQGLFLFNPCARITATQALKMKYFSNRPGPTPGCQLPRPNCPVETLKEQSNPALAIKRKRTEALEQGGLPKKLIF
T15 sequence (P51946 whole entry partner): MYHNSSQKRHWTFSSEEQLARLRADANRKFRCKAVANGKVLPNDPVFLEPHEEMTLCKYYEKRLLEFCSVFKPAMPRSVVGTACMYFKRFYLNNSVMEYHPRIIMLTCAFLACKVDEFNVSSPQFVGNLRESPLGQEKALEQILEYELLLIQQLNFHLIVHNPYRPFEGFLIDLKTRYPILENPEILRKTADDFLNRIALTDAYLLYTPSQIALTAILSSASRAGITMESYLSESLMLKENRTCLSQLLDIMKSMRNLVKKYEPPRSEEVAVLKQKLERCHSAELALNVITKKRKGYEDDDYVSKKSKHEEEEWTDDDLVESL
T15 sequence (P51948 whole entry partner): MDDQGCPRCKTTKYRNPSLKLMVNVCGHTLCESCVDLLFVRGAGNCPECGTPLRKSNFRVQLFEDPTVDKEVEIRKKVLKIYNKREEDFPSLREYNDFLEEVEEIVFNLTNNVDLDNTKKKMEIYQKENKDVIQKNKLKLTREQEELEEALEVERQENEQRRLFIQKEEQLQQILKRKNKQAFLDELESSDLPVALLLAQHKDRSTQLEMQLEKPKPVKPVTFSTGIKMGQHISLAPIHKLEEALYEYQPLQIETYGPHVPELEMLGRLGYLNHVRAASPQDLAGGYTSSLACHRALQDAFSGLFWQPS
T1 sequence (Q8TF76 whole entry): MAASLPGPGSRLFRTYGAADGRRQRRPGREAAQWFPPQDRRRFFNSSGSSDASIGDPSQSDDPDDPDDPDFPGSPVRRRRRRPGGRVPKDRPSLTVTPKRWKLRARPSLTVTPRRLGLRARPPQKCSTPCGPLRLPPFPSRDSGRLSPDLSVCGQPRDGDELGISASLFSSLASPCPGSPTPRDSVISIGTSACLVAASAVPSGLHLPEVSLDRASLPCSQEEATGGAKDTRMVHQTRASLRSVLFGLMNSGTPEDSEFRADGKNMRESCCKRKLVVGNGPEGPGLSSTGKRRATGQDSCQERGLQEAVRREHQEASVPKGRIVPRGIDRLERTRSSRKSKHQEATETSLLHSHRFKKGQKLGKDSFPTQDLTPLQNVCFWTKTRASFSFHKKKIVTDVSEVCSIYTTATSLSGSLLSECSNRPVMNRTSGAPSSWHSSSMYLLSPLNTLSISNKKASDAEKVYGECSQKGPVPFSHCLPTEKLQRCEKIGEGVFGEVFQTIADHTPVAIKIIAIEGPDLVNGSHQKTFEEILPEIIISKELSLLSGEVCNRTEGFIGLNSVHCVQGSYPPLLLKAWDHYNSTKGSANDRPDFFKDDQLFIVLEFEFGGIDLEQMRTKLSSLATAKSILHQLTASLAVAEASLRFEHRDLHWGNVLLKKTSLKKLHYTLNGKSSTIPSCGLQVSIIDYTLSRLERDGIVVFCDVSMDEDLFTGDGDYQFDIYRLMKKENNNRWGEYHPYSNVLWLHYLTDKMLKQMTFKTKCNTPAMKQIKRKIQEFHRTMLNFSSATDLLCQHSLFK
T12 sequence (Q00535 whole entry): as the sequence (Q00535 whole entry) above
T12 sequence (Q15078 99-307 partner limits assumed): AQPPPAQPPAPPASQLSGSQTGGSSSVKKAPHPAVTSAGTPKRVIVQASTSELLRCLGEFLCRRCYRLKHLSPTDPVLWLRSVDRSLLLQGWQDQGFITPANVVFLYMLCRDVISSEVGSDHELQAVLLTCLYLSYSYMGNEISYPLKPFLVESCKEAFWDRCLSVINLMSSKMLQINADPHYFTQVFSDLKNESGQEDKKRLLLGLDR

## NS(=O)(=O)c1ccc(Nc2ncc3cc4n(c3n2)C2(CCCCC2)C(=O)NN4)cc1 [INX-315]
GSG2 (Haspin)
  inhibition at 0.1 µM: 4%
[1]
  inhibition at 0.1 µM: -17%
PIK3C2B (PI3K-C2 beta)
  inhibition at 0.1 µM: -14%
PIK3C2G (PI3K-C2 gamma)
  inhibition at 0.1 µM: 6%
[2]
  inhibition at 0.1 µM: 0%
LRRK2 I2020T
  inhibition at 0.1 µM: 28%
LRRK2 R1441C
  inhibition at 0.1 µM: 22%
CDK4/cyclin D1 [3]
  inhibition at 0.1 µM: 24%
PI4KB (PI4K beta)
  inhibition at 0.1 µM: 2%
[4]
  IC50: < 25 nM
CDK2/cyclin E1; Supp Fig S1C, value (SEM), read-out: IC50 (nM) CDK2/cyclin E1
  IC50: 0.6 nM
CDK2/cyclin E1; Supp Fig S1D, representative dose response curve, read-out: IC50 CDK2 - Cyclin E
  IC50: 0.644 nM
CDK2/cyclin E1; biochemical IC50s
  increase in potency on CDK2 relative to compound C: ~10 fold
  selectivity for CDK2 compared with CDK1: 50 fold
CDK5; ATP at Km, value (SEM), read-out: IC50 (nmol/L) CDK5
  IC50: 23.1 nmol/L
CDK5; Supp Fig S1C, value (SEM), read-out: IC50 (nM) CDK5
  IC50: 23.1 nmol/L
CDK5; Supp Fig S1D, representative dose response curve, read-out: IC50 CDK5 - p35
  IC50: 23.1 nmol/L
CDK5/p25
  IC50: 21.4 nmol/L
CDK9/cyclin T1
  IC50: 38.6 nM
CDK6/cyclin D3
  IC50: 291 nM
CDK7
  IC50: > 10000 nM
CDK1/cyclin B1; Supp Fig S1C, value (SEM), read-out: IC50 (nM) CDK1/B1
  IC50: 30 nM
CDK1/cyclin B1; Supp Fig S1D, representative dose response curve, read-out: IC50 CDK1 - Cyclin B
  IC50: 29.1 nM
CDK2/cyclin A2
  IC50: 2.96 nM
CDK4/cyclin D1 [5]; Supp Fig S1C, value (SEM), read-out: IC50 (nM) CDK4/cyclin D1
  IC50: 126 nM
CDK4/cyclin D1 [5]; Supp Fig S1D, representative dose response curve, read-out: IC50 CDK4 - Cyclin D
  IC50: 127 nM
CDK3/cyclin E1; ATP at Km, value (SEM), read-out: IC50 (nmol/L) CDK3/cyclin E1
  IC50: 15.1 nmol/L
CDK3/cyclin E1; Supp Fig S1D, representative dose response curve, read-out: IC50 CDK3 - Cyclin E
  IC50: 15.1 nmol/L
